# Results from ChEMBL document CHEMBL3217713, “Synthesis and biological evaluation of primaquinechloroquine twin drug: a novel heme-interacting molecule prevents free heme and hydroxyl radical-mediated protein degradation” (Medchemcomm, 2013).
# The source made the active and inactive calls. The rule behind the calls is not given here.
# Key:
# [1] = Antioxidant activity assessed as reduction of Fe(3)-TPTZ to Fe(2)-TPTZ complex after 5 mins by FRAP assay; assay type: functional
# Heme [2] = experiment: Binding affinity to heme (unknown origin)
# [3] = Cytotoxicity against rat gastric mucosal cells assessed as cell viability at 10 to 100 uM after 16 hrs by MTT assay; assay type: cell-based, Gastric mucosa
# Heme [4] = experiment: Binding affinity to heme (unknown origin) by differential spectroscopy
# [5] = Antioxidant activity assessed as reduction of hydroxyl radical-mediated BSA damage at 50 uM after 30 mins by SDS-PAGE; assay type: functional
# [6] = Iron chelating activity of the compound assessed as reduction of Fe(2)-TPTZ complex formation by UV-visible spectrophotometry; assay type: physicochemical
# [7] = Antioxidant activity assessed as reduction of heme/H2O2-mediated BSA degradation at 50 uM after 1 hr by SDS-PAGE; assay type: functional
# [8] = system: Radical scavenging activity; experiment: Antioxidant activity assessed as DPPH free radical scavenging activity after 30 mins by spectrophotometry; assay type: functional
# Heme [9] = experiment: Binding affinity to heme (unknown origin) at 2 to 20 uM by optical spectroscopy
smiles,measurement,setting,value
O=C(O)c1cc(O)c(O)c(O)c1,Activity,[1],33.9 µM
CCN(CC)CCCC(C)Nc1ccnc2cc(Cl)ccc12 (stereo not drawn),Ka,Heme [2],5.5 ×10⁴ /M
COc1cc(NC(C)CCCN)c2ncccc2c1 (stereo not drawn) [PRIMAQUINE],Activity,[3],Toxic
COc1cc(NC(C)CCCNc2ccnc3cc(Cl)ccc23)c2ncccc2c1 (stereo not drawn),Activity,[1],30 µM
same,Kapp,Heme [4],2.3 ×10⁴ /M
same,Kd,Heme [4],4.34 µM
same,Activity,[5],Active
same,Kd,[6],5.19 µM
same,Activity,[7],Active
same,Activity,[8],Dose-dependent effect
same,IC50,[8],23 µM
same,Activity,Heme [9],Active
same,Activity,[3],Non-toxic
